For series [1], the system named is oral mucosa cells. Nature of the series: Genotoxic effects on oral mucosa cells. The format is cell-based, human. Particulars: positive control, hydrogen peroxide 0.0005%. As for the experimental part:
The tests were performed according to the recommendations established by the Code of Ethics of the World Medical Association, after approval by the ethics committee of the Centro Universitário de Patos (number: 3621284). Blood samples (types A, B, and O) and smears of oral mucosa were donated by young, healthy adults. First, the oral mucosa cells were collected from the donors, which was done with a cyto-brush (smear collector) in the cheek area, and the material obtained was placed in 5 mL of 0.9% NaCl. As controls, cells treated with hydrogen peroxide −0.0005% (positive control) and untreated cells (negative control) were used. The cells were washed twice with saline and centrifuged for 10 min at 400× g and kept in saline. After the third wash, the cells were exposed (ex vivo) to A2 substance at 50, 100, 500, and 1000 µg/mL concentrations for 30 min. The material was centrifuged and the supernatant was discarded before smear preparation. The cells were homogenized in a vortex and placed on the slides at room temperature for drying for 15 min. Then, they were fixed with methanol: acetic acid (3:1) for 15 min and stained with 2% Giemsa.

Series [2] concerns Candida albicans. Also noted: method as in doi:10.4067/S0717-97072003000400005. To be noted: cited from earlier work.
In series [3] the test system is K. pneumoniae strains. Description: Minimum inhibitory concentration (MIC), broth microdilution. In kind it is cell-based, Klebsiella pneumoniae. As for the experimental part:
The clinical isolates strains of K. pneumoniae were used in this study belong to the MICOTECA of the Antibacterial and Antifungal Activity Research Laboratory of the Federal University of Paraíba, Brazil, which are: KP-25, KP-26, KP-56, KP-83, KP-87, KP-138, KP-143, KP-166, KP-173, KP-176, KP-260, and KP-326. The American Type Culture Collection strain ATCC-700603 was used as controls. For use in the assays, bacterial suspensions were prepared in 0.9% saline solution, from fresh cultures, and adjusted to the McFarland standard 0.5 scale.
To assess the antibacterial activity of substances A1 and A2, the minimum inhibitory concentration against K. pneumoniae strains was determined. The substances were solubilized in dimethyl sulfoxide (DMSO) at 5% and Tween-80 at 2%, to obtain emulsions in the concentrations necessary for use in the tests. The MIC determination was performed using the broth microdilution technique in a 96-well plate to obtain different concentrations of A1 and A2 [35]. In parallel, controls for sterility, cell viability, and interference of the vehicles used in the preparation of substance emulsions (DMSO and Tween-80) were also performed. MIC is defined as the lowest concentration capable of causing complete inhibition of bacterial growth after 24 h at 35 ± 2 °C.

Values after ≈ are worked out from the molar mass of the structure shown. “Also recorded” adds a separate entry of the source. Read-outs that look alike come from different tables or passages of the source.

For the molecule `OO` [PC-H2O2, hydrogen peroxide, reference compound], in series [1], the Binucleation is recorded as 1.00%, the Karyolysis was determined as 7.00%, the Karyorrhexis amounted to 10.75% and the Micronucleus is listed as 6.50%. Further, the Normal in series [1] is on record as 77.75%.

Regarding `CC(=O)Nc1ccccc1O` [N-(2-hydroxyphenyl) acetamide], the “antimicrobial activity against Candida albicans” value in series [2] was “did not have the ability to inhibit fungal growth; also recorded: absence of activity”.

For the molecule `O=C(CCl)Nc1ccccc1O` [2-chloro-N-(2-hydroxyphenyl) acetamide], in series [2], the “C. albicans strains inhibited” value was 96.6%.

What is called MIC is the lowest concentration that inhibits growth of the organism. As usually defined, the melting point is the temperature, or range, at which the solid turns liquid. `CC(=O)Nc1ccc(F)c([N+](=O)[O-])c1` [A1, N-(4-fluoro-3-nitrophenyl)acetamide] yielded a melting point of 142 to 144 °C. The MIC in series [3] (Klebsiella pneumoniae, ATCC700603, strain ATCC-700603, 24 h at 35 ± 2 °C, read-out: MIC) came out at 1020 µg/mL (≈ 5.17 mM). Moreover, the MIC in series [3] (Klebsiella pneumoniae, 100% of the K. pneumoniae strains used in this study, read-out: MIC) is 1020 µg/mL (≈ 5.17 mM). Besides, the MIC in series [3] (Klebsiella pneumoniae, strain KP-138, 24 h at 35 ± 2 °C, read-out: MIC) stood at 1020 µg/mL (≈ 5.17 mM). Further, the MIC in series [3] (strain KP-25, 24 h at 35 ± 2 °C) is on record as 1024 µg/mL (≈ 5.17 mM). The same molecule gave an MIC in series [3] (strain KP-26, 24 h at 35 ± 2 °C) of 1024 µg/mL (≈ 5.17 mM). The same molecule displayed an MIC in series [3] (strain KP-56, 24 h at 35 ± 2 °C) of 1024 µg/mL (≈ 5.17 mM). The MIC in series [3] (strain KP-83, 24 h at 35 ± 2 °C) turned out to be 1024 µg/mL (≈ 5.17 mM). The molecule further registered an MIC in series [3] (strain KP-87, 24 h at 35 ± 2 °C) of 1024 µg/mL (≈ 5.17 mM). Further, in series [3] (strain KP-143, 24 h at 35 ± 2 °C), the MIC is recorded as 1024 µg/mL (≈ 5.17 mM). Moreover, in series [3] (strain KP-166, 24 h at 35 ± 2 °C), the MIC came out at 1024 µg/mL (≈ 5.17 mM). This molecule also returned an MIC in series [3] (strain KP-173, 24 h at 35 ± 2 °C) of 1024 µg/mL (≈ 5.17 mM). In addition, the MIC in series [3] (strain KP-176, 24 h at 35 ± 2 °C) is given as 1024 µg/mL (≈ 5.17 mM). The molecule also had an MIC in series [3] (strain KP-260, 24 h at 35 ± 2 °C) of 1024 µg/mL (≈ 5.17 mM). Further, the MIC in series [3] (strain KP-326, 24 h at 35 ± 2 °C) amounted to 1024 µg/mL (≈ 5.17 mM).

Source of the values: publication PMC7504751, “Potential of 2-Chloro-N-(4-fluoro-3-nitrophenyl)acetamide Against Klebsiella pneumoniae and In Vitro Toxicity Analysis” (Molecules, 2020).
